In PubChem BioAssay AID792 (PCMD, 2007) one finds IC50 data, which are given here for 66 compounds.

Inconclusive results are not listed. Calls of active or inactive are those of the source. No rule for the calls is given here.

The test addresses S. cerevisiae eIF2B mutant, luciferase reporter luminescence. As to the kind of experiment: eIF2B reporter inhibitors in yeast strains, dose response, S. cerevisiae, mutant, wild-type, luminescence, growth (AID 792).
[1] abbreviates: measured here: mutant yeast growth.
Setting [2] is: S. cerevisiae wild-type, luminescence.

As to `CCOC(=O)c1c(N)nn(C(C)=O)c1-c1ccccc1`, the IC50 is > 100 µM (inactive). For the same compound, under setting [1], the IC50 is over 100 µM.
For `COc1ccc(OC)c(C2=Nn3c(nnc3-c3cccc(OC(C)C)c3)SC2)c1`, in that order: > 100 µM (inactive) and over 100 µM.
For `Cn1c(/N=C/c2c(O)ccc3ccccc23)nc2ccccc21`, in that order: > 100 µM (inactive) and over 100 µM.
For `CCOC(=O)c1c(NC(=O)COC)sc2c1CCCC2`, in that order: > 100 µM (inactive) and over 100 µM.
Take `CCCCNC(=O)OC1CCS(=O)(=O)C1` (stereo not given): the IC50 was > 100 µM (inactive). The compound also displayed a half-maximal inhibitory concentration (IC50) under setting [1] of over 100 µM.
For `O=c1c(-c2cc3ccccc3o2)[n+]([O-])c2ccccc2n1OCc1ccccn1`, in that order: > 100 µM (inactive) and over 100 µM.
For `NC(=O)CSc1nnc(-c2ccco2)n1N`, in that order: > 100 µM (inactive) and over 100 µM.
With `O=C1c2ccccc2C(=O)C1c1ccncc1`, the IC50 entry was “inactive”. In addition, the IC50 under setting [2] was found to be 17.9 µM. The concentration for half-maximal inhibition (IC50) under setting [1] was over 100 µM.
With `CC(C)(C)SCCNC(=O)c1ccc(Cl)c(S(=O)(=O)N2CCOCC2)c1`, the IC50 is > 100 µM (inactive). The compound further came in with an IC50 under setting [1] of over 100 µM.
For `O=C(CC(Nc1ccccc1)C(=O)O)c1ccccc1` (stereo not given), in that order: > 100 µM (inactive) and over 100 µM.
Take `CCOC(=O)C1(CCSC)NC(c2ccco2)C2C(=O)N(C)C(=O)C21` (stereo not given): the IC50 is > 100 µM (inactive). Under setting [1], this compound came in with an IC50 of over 100 µM.
Consider `CCCOCC1CC2(CC(C)(c3csc(N)n3)OC2=O)C(=O)O1` (stereo not given), for which the IC50 is > 100 µM (inactive). Also, the IC50 under setting [1] was over 100 µM.
For the compound `CCc1ccc2oc(-c3cccc(NC(=O)c4cccnc4)c3)nc2c1`, the IC50 is > 100 µM (inactive). The IC50 under setting [1] is over 100 µM.
For `C=CCn1c(SCC(=O)Nc2cc(C)cc(C)c2)nnc1-c1cnccn1`, in that order: > 100 µM (inactive) and over 100 µM.
For `Cc1ccc(N2CC(C(=O)Nc3ccccc3C(=O)NC3CCCCC3)CC2=O)cc1C` (stereo not given), the IC50 was > 100 µM (inactive). Under setting [1], this compound registered an IC50 of over 100 µM.
For `O=C(CCN1CCN(Cc2ccccc2)CC1)Nc1cccc(Cl)c1`, in that order: > 100 µM (inactive) and over 100 µM.
For `CCOC(=O)C1=C(C)NC(C)=C(C(=O)OCC)C1C(=O)OCC(=O)N1CCc2ccccc2C1`, in that order: > 100 µM (inactive) and over 100 µM.
For `CCCCNS(=O)(=O)c1cccc(S(=O)(=O)N2CCCC2)c1`, in that order: > 100 µM (inactive) and over 100 µM.
For `Nc1nnnn1/N=C/c1ccc(O)cc1`, the IC50 entry is “inactive”. Moreover, the IC50 under setting [2] was 2.78 µM. For the same compound, the IC50 under setting [1] is over 100 µM.
With `CC(C)C(NC(=O)c1ccccc1)C(=O)NC1=NCCS1` (stereo not given), the IC50 is > 100 µM (inactive). In addition, the IC50 under setting [1] was over 100 µM.
For `O=C(CC(C(=O)N1CCc2ccccc21)n1ccnc1)NCC1CCCO1` (stereo not given), in that order: > 100 µM (inactive) and over 100 µM.
Turning to `COCC(=O)NC(c1ccccc1)c1ccccc1`, the IC50 was > 100 µM (inactive). The same compound showed an IC50 under setting [1] of over 100 µM.
For `CCN(CC(N)=O)S(=O)(=O)c1ccc(Br)cc1`, in that order: > 100 µM (inactive) and over 100 µM.
For `O=C(NC1CCCC1)C(c1ccsc1)N(Cc1ccco1)C(=O)Cc1cccs1` (stereo not given), the IC50 was > 100 µM (inactive). Moreover, the IC50 under setting [1] was over 100 µM.
For `CCN(CC)c1ncnc2sc(C(=O)N3CCN(c4ccccc4)CC3)c(C)c12`, in that order: > 100 µM (inactive) and over 100 µM.
For `Cc1ccc2c(c1)N(CC(=O)NC1CCC(C)CC1)C(=O)CO2` (stereo not given), in that order: > 100 µM (inactive) and over 100 µM.
For `C=CCn1c(SC2CCOC2=O)nc2sc(CC)cc2c1=O` (stereo not given), the IC50 was > 100 µM (inactive). This compound came in with a half-maximal inhibitory concentration (IC50) under setting [1] of over 100 µM.
For `c1ccc2c(c1)ncn2-c1ncnc2sc3c(c12)CCCC3`, in that order: > 100 µM (inactive) and over 100 µM.
For `CCCCCn1c(SCC(=O)OCC)nc2cc(C(=O)NCc3ccco3)ccc2c1=O`, in that order: > 100 µM (inactive) and over 100 µM.
Take `CC(C)CCNC1=NCCCCC1`: the IC50 is > 100 µM (inactive). Also, the IC50 under setting [1] was over 100 µM.
For `Cc1cccc(-n2c(SCC(=O)Nc3nonc3C)nnc2-c2ccoc2C)c1`, in that order: > 100 µM (inactive) and over 100 µM.
For `CC(=O)Nc1cc(C(F)(F)F)ccc1OCCOc1ccccc1`, in that order: > 100 µM (inactive) and over 100 µM.
For `CNC(=O)CCn1nc(-c2ccccc2)c2ccccc2c1=O`, in that order: > 100 µM (inactive) and over 100 µM.
As for `CN(Cc1c(F)cccc1Cl)c1ccc(S(=O)(=O)N2CCOCC2)cn1`, the IC50 was > 100 µM (inactive). Further, the IC50 under setting [1] was over 100 µM.
Consider `C=CCN(C(=O)CCC(=O)O)C1CC(=O)N(c2ccc(OC)cc2)C1=O` (stereo not given), for which the IC50 was > 100 µM (inactive). Besides, the IC50 under setting [1] was over 100 µM.
For `CCOC(=O)Cn1c(=O)c(-c2ccccc2NCc2ccccc2)nc2ccccc21`, in that order: > 100 µM (inactive) and over 100 µM.
For `Fc1ccc2nc(Nc3nc4c(s3)CCCC4)sc2c1`, in that order: > 100 µM (inactive) and over 100 µM.
For `Cc1cc(C)cc(NS(=O)(=O)c2ccc3[nH]c(=O)[nH]c3c2)c1`, in that order: > 100 µM (inactive) and over 100 µM.
Regarding `CN1C(=O)NC(c2ccccc2)C2=C1CN(c1cccc(C(F)(F)F)c1)C2=O` (stereo not given), the IC50 is > 100 µM (inactive). Under setting [1], this compound gave an IC50 of over 100 µM.
As for `C=CCNc1nc(-c2cccc(OC)c2O)nc2ccccc12`, the IC50 was > 100 µM (inactive). Further, the IC50 under setting [1] is over 100 µM.
For `CC(C)Cc1nnc(NC(=O)CC(=O)Nc2ccccc2C(=O)O)s1`, the IC50 result was “inactive”. Under setting [2], this compound displayed an IC50 of 65.4 µM. This compound displayed an IC50 under setting [1] of over 100 µM.
With `COc1ccc(NC(=O)CSc2ncnc3c2cnn3Cc2ccccc2)cc1OC`, the IC50 was > 100 µM (inactive). In addition, under setting [1], the 50% inhibitory concentration (IC50) is over 100 µM.
For `COC(=O)NC(=C(Cl)Cl)S(=O)(=O)c1ccccc1`, in that order: > 100 µM (inactive) and over 100 µM.
With `COc1ccccc1Nc1nc(C)cc(C)c1C(N)=O`, the IC50 is > 100 µM (inactive). This compound also returned an IC50 under setting [1] of over 100 µM.
For `Cn1c(CNc2ccccc2)cc(=O)n(C)c1=O`, in that order: > 100 µM (inactive) and over 100 µM.
For `N#Cc1c(N2CCOCC2)nc(-c2ccco2)c2c1CCCC2`, in that order: > 100 µM (inactive) and over 100 µM.
For `O=C(Nc1ccc2nc(-c3ccc4nc[nH]c4c3)[nH]c2c1)c1cccs1`, in that order: > 100 µM (inactive) and over 100 µM.
In the case of `CN1C(=O)CC2(CC(=O)N(Cc3ccccc3)C2)C1=O` (stereo not given), the IC50 was > 100 µM (inactive). Besides, the 50% inhibitory concentration (IC50) under setting [1] was over 100 µM.
For `O=C(NCCC1=CCCCC1)c1ccc(=O)oc1`, the IC50 was > 100 µM (inactive). The compound also showed an IC50 under setting [1] of over 100 µM.
Take `Cc1ccc(C(=O)NCc2ccco2)cc1S(=O)(=O)Nc1cccc(C)c1C`: the IC50 was > 100 µM (inactive). The compound also registered an IC50 under setting [1] of over 100 µM.
`O=C1c2ccncc2C(=O)N1C1CCCCC1`: the IC50 is > 100 µM (inactive). Also, under setting [1], the IC50 is over 100 µM.
`CCC(C)Oc1cccc(OCCCCN2C(=O)NC(C)(C)C2=O)c1` (stereo not given): the IC50 was > 100 µM (inactive). This compound returned an IC50 under setting [1] of over 100 µM.
For `Cc1ccc(C)c(N2CCN(S(=O)(=O)c3ccc4[nH]c(=O)c(=O)[nH]c4c3)CC2)c1`, in that order: > 100 µM (inactive) and over 100 µM.
As to `CCC(C(=O)NCc1ccc(OC)cc1)n1nc(C)n2c(cc3occc32)c1=O` (stereo not given), the IC50 was > 100 µM (inactive). In addition, the IC50 under setting [1] is over 100 µM.
For `CC(C)C1Oc2ccccc2N(CC(=O)N(Cc2ccccn2)CC2CCCO2)C1=O` (stereo not given), in that order: > 100 µM (inactive) and over 100 µM.
For `CC(C)Oc1ccc(C(=O)O)c(C(=O)O)c1`, in that order: > 100 µM (inactive) and over 100 µM.
For `CCOC(=O)CSC1=Nc2ccccc2C2=NC(CC(=O)NCc3ccccc3)C(=O)N12` (stereo not given), in that order: > 100 µM (inactive) and over 100 µM.
Regarding `CC(C)CNC(=O)c1cc2nc(C3CC3)cc(C(F)(F)F)n2n1`, the IC50 was > 100 µM (inactive). The compound further had an IC50 under setting [1] of over 100 µM.
For `Nn1c(COc2cccc(Br)c2)nnc1SCC(=O)N1CCc2ccccc2C1`, in that order: > 100 µM (inactive) and over 100 µM.
For `COc1cccc(NC(=O)CN(c2ccc(C)cc2)S(=O)(=O)c2c(C)nn(C)c2C)c1`, in that order: > 100 µM (inactive) and over 100 µM.
For `CCOC(=O)N1CCN(c2cc(NCCC(=O)O)c3c4c(onc24)-c2ccccc2C3=O)CC1`, the IC50 was > 100 µM (inactive).
For the compound `O=C(c1ccc(Br)o1)N1CCCc2ccccc21`, the IC50 was > 100 µM (inactive). In addition, the IC50 under setting [1] is over 100 µM.
For `Nc1nc(NCc2ccccc2)nc(-c2ccccc2)n1`, in that order: > 100 µM (inactive) and over 100 µM.
For `CCOC(=O)C1CCCN(C(=O)c2cc3c(C)nc4ccccc4c3o2)C1` (stereo not given), in that order: > 100 µM (inactive) and over 100 µM.
For the compound `COc1ccc(CCNC(=O)c2ccc(N3CCCC3=O)cc2)cc1OC`, the IC50 is > 100 µM (inactive). Also, under setting [2], the IC50 is over 100 µM. The 50% inhibitory concentration (IC50) under setting [1] was over 100 µM.
`CCSc1nnc(-c2ccc(S(=O)(=O)NCc3cccs3)cc2)o1`: the IC50 was > 100 µM (inactive). The compound also returned an IC50 under setting [1] of over 100 µM.

What is called IC50 is the concentration that inhibits the measured activity by half.
